In US20180200323A1, “USE OF TETRAPEPTIDE -3 GEKG OR PENTAPEPTIDE -3 GEKGF FOR TREATING DEGENERATIVE JOINT DISEASE” (priority 2017, published 2018):
“Also recorded” adds a separate entry of the source.

How the values were obtained:
[1] = system: cartilage cells of the growth plate; experiment: Cultivated cartilage cells: DNA content, collagen and proteoglycan production; format: cell-based, rabbits; conditions: 250 ppm
Description: Firstly, cartilage cells of the growth plate of the same rabbits were taken and continuously cultivated. The cultivated cells were divided into three groups. In Group I, only 250 ppm of tetrapeptide-3 GEKG was added. In Group II, only 100 ng/ml of collagen was added. In Group III, 250 ppm of tetrapeptide-3 GEKG and 100 ng/ml of collagen were added. A negative control group was also used. After new tissues of cartilage grew at a lower portion of a centrifuge tube, the new tissues were transferred to a 24-well plate for continuing cultivation, wherein the culture medium was replaced for every 2 days. During the cultivation, samples were collected after three (3), seven (7) and fourteen (14) days, and then were analyzed.
For the histological and histochemical measurements, samples were collected, and HE dying and immunochemical measurement (S-P method) were executed.
The content of DNA in the cells of cartilage was determined by the method of Hoechst 33258.
Extracellular matrix of cartilage primarily comprises collagen and proteoglycan composed of glycosaminoglycan and core protein, in addition to water. The content of the matrix and its status of the metabolism were quantitatively analyzed by determining a level of the collagen and proteoglycan in the new tissues of cartilage.
The synthesis of the collagen of the cartilage is measured by the hydroxyproline method. Because the content of hydroxyproline in the collagen was substantially constant (about 10% by weight), an amount of hydroxyproline could be used to analyze the amount of the collagen of the cartilage by using a commercial kit including the hydroxyproline reagent. The content of the collagen in the samples was calculated.

[2] = system: synovial liquid; experiment: Rabbit knee cartilage defect model: biochemical indicators (NO, SOD, MDA) in synovial liquid; format: in vivo, New Zealand white rabbits
Text: As used in the present invention, all of the methods for measuring SOD, NO and MDA in synovial liquid and collagen and proteoglycan in extracellular matrix of cartilage have been known and conventionally used in the art.
(§1) Fifteen (15) healthy adult New Zealand white rabbits were randomly divided into three (3) groups: a normal control group (Group A), a model control group (Group B) and a test group subject to intra-articular injection of a test peptide (Group C), with five (5) rabbits included in each of the groups. Fasting was conducted within four hours before surgical operations. Ketamine (10 mg/kg) and atropine (0.2 mg/kg) were injected in the muscle of each rabbit. After anesthesia took effect, each rabbit was confined to an operating table. An 8 cm-long longitudinal scission was made in the back of each knee before the skin was lifted. From the back of the knee, the articular capsule and synovial were opened. Then, the knee was bent for 90° to expose the cartilage at a lower end of the femur. Two cylindrical cutouts of 3 mm in diameter and 3 mm in depth were made. Coagulation was removed from each of the cutouts. The joint cavity was washed with a sterile saline solution. Stitches were made for each section. After the surgical operation, injection of penicillin was conducted against infection for a week. After five (5) days, each rabbit was able to eat and stand normally.
(§2) Two (2) weeks after the surgical operation, the rabbits of Group A and Group B were not treated, whereas the rabbits of Group C were subject to intra-articular injection of 250 ppm/kg of tetrapeptide-3 GEKG once for every seven (7) days, and the injection lasted for twelve (12) weeks. Articular injection of 0.5 ml of saline was executed, and then 0.2 ml of synovial liquid was collected. The articular capsule was cut and opened, synovial was removed, and an entire tibial joint was taken. Arthropathy in arthrodial cartilage was observed by bare eyes and also via surgical lens. Slices were taken, dyed by hematoxylin and eosin stain (HE Stain) and toluidine blue, and then observed in an optical microscope.

[3] = system: arthrodial cartilage of the knee joint; experiment: Rabbit knee cartilage defect model: observation by bare eyes and histomorphometry; format: in vivo, New Zealand white rabbits
Description: as §1, §2

[4] = Group C vs model control group B
[5] = Group C: intra-articular injection of 250 ppm/kg once every 7 days for 12 weeks

tetrapeptide-3 GEKG
Hyperosteogeny of the cells of the cartilage ([1]; samples after 3, 7 and 14 days): considerable hyperosteogeny | Content of DNA of the cells of the cartilage (Hoechst 33258) ([1]; vs control group, FIG. 1): statistically different from that of the control group | Production of collagen of extracellular matrix of cartilage (hydroxyproline method) ([1]; vs control group, FIG. 2): considerably increased | Production of proteoglycan of extracellular matrix of cartilage ([1]; vs control group, FIG. 3): considerably increased | MDA level in synovial liquid (change in words) [2, 4]: considerably reduced | SOD level in synovial liquid (change in words) [2, 4]: considerably increased | MDA level in synovial liquid [2, 5]: 13.12 ± 2.28 c/mol · L^−1 | NO level in synovial liquid [2, 5]: 20.76 ± 2.88 c/mol · L^−1 | SOD level in synovial liquid [2, 5]: 6.60 ± 1.37 c/mol · L^−1 | Morphosis of the arthrodial cartilage compared with Group B [3, 4]: significant improvement | Histomorphometric observation of repaired tissues ([3]; Group C, HE and toluidine blue stain, optical microscope): the repaired tissues were not substantially different from the normal tissues of the knee joint; also recorded: considerably repaired the damaged tissues of cartilage | Repair of knee joint injuries observed by bare eyes ([3]; Group C, after 12 weeks of intra-articular injection, 250 ppm/kg): the injuries were completely repaired
